Like-named read-outs stand apart in the source and are kept apart here.
How the values were obtained:
in vivo = conditions: male, Göttingen, minipig, iv
Method: The purpose of this study is to determine the protraction in vivo of the GLP-1 derivatives after i.v. administration to minipigs, i.e. the prolongation of their time in the body and thereby their time of action. This is done in a pharmacokinetic (PK) study, where the terminal half-life of the derivative in question is determined. By terminal half-life is meant the time it takes to halve a certain plasma concentration in the terminal elimination phase.
Male Göttingen minipigs were obtained from Ellegaard Göttingen Minipigs (Dalmose, Denmark) approximately 7-14 months of age and weighing approximately 16-35 kg were used in the studies. The minipigs were housed either individually (pigs with permanent catheters) or in a group and fed restrictedly once or twice daily with SDS minipig diet (Special Diets Services, Essex, UK).
After at least 2 weeks of acclimatisation two permanent central venous catheters were implanted in vena cava caudalis or cranialis in each animal. The animals were allowed 1 week recovery after the surgery, and were then used for repeated pharmacokinetic studies with a suitable wash-out period between successive GLP-1 derivative dosings.
Blood samples (for example 0.8 ml) were collected in EDTA buffer (8 mM) and then centrifuged at 4° C. and 1942G for 10 minutes.
Plasma was pipetted into Micronic tubes on dry ice, and kept at −20° C. until analysed for plasma concentration of the respective GLP-1 compound using LOCI. Individual plasma concentration-time profiles were analyzed by a non-compartmental pharmacokinetic method in Phoenix v. 6.2 (Pharsight Inc., Mountain View, Calif., USA), or other relevant software for PK analysis, and the resulting terminal half-lives (harmonic mean) determined.

human GLP-1 receptor [1] = target: T1, human GLP-1 receptor (Homo sapiens, UniProt P43220); test: GLP-1 receptor binding: competitive binding assay (125I-GLP-1, SPA) on isolated membranes at low and high HSA
T1 construct: expressed in transfected cells; host or cells: BHK cells (parent line BHKTS13), clone FCW467-12A; membrane preparation

human GLP-1 receptor [2] = target: T1, human GLP-1 receptor; test: In vitro potency: CRE luciferase reporter gene assay in BHK cells expressing the human GLP-1 receptor; format: cell-based; conditions: whole cell reporter gene assay, BHK cells, human GLP-1 receptor; average of at least two replicates; read-out: EC50
How it was run: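 Whole-cell assay in stably transfected BHK cells carrying CRE-driven firefly luciferase, 5×10^3 cells/well, in assay buffer with 2% ovalbumin and 0.2% Pluronic F-68. Compound working solutions were 0.2 μM.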

[3] = Low HSA IC50, low HSA (max. 0.001% final assay concentration)
[4] = high HSA (2.0% final assay concentration), read-out: High HSA IC50

T1 sequence (P43220 24-463): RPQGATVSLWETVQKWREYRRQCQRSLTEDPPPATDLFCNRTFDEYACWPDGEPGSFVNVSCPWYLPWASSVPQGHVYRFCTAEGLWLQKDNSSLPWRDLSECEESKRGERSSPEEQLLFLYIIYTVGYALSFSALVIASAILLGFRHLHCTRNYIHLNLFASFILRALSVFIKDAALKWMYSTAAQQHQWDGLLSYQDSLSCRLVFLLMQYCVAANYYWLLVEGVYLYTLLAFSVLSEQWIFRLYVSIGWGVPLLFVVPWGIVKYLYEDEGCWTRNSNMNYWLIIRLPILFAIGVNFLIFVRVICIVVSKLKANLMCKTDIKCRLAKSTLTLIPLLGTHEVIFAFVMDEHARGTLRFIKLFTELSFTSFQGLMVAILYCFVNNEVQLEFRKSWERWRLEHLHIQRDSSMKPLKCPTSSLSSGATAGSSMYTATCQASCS

half-life (in vivo) [h] | Structure (SMILES) | IC50 (human GLP-1 receptor [1]; [3]) [nM] | IC50 (human GLP-1 receptor [1]; [4]) [nM] | EC50 (human GLP-1 receptor [2]) [nM]
130 | CC[C@H](C)[C@H](NC(=O)[C@H](Cc1ccccc1)NC(=O)[C@H](CCC(=O)O)NC(=O)[C@H](CCCNC(=N)N)NC(=O)[C@H](C)NC(=O)[C@H](C)NC(=O)[C@H](CCC(N)=O)NC(=O)[C@H](CCC(=O)O)NC(=O)[C@H](CCC(=O)O)NC(=O)[C@H](CC(C)C)NC(=O)[C@H](Cc1ccc(O)cc1)NC(=O)[C@H](CO)NC(=O)[C@H](CO)NC(=O)[C@@H](NC(=O)[C@H](CC(=O)O)NC(=O)[C@H](CO)NC(=O)[C@@H](NC(=O)[C@H](Cc1ccccc1)NC(=O)[C@@H](NC(=O)CNC(=O)[C@H](CCC(=O)O)NC(=O)C(C)(C)NC(=O)[C@@H](N)Cc1c[nH]cn1)[C@@H](C)O)[C@@H](C)O)C(C)C)C(=O)N[C@@H](C)C(=O)N[C@@H](Cc1c[nH]c2ccccc12)C(=O)N[C@@H](CC(C)C)C(=O)N[C@H](C(=O)N[C@@H](CCCNC(=N)N)C(=O)NCC(=O)N[C@@H](CCCNC(=N)N)C(=O)N[C@@H](CCCCNC(=O)CN(CCCNC(=O)COCCOCCNC(=O)COCCOCCNC(=O)COCCOCCNC(=O)COCCOCCNC(=O)COCCOCCNC(=O)[C@@H](N)CCCCNC(=O)[C@@H](N)CCCCNC(=O)CCCCCCCCCCCCCCCCCCC(=O)O)CCCNC(=O)COCCOCCNC(=O)COCCOCCNC(=O)COCCOCCNC(=O)COCCOCCNC(=O)COCCOCCNC(=O)[C@@H](N)CCCCNC(=O)[C@@H](N)CCCCNC(=O)CCCCCCCCCCCCCCCCCCC(=O)O)C(=O)O)C(C)C [Example 1, N{Epsilon-37}-[2-[bis[3-[[2-[2-[2-[[2-[2-[2-[[2-[2-[2-[[2-[2-[2-[[2-[2-[2-[[(2S)-2-amino-6-[[(2S)-2-amino-6-(19-carboxynonadecanoylamino)hexanoyl]amino]hexanoyl]amino]ethoxy]ethoxy]acetyl]amino]ethoxy]ethoxy]acetyl]amino]ethoxy]ethoxy]acetyl]amino]ethoxy]ethoxy]acetyl]amino]ethoxy]ethoxy]acetyl]amino]propyl]amino]acetyl]-[Ab8,Glu22,Arg26,Arg34,Lys37]-GLP-1-(7-37)-peptide] | – | – | –
– | CC[C@H](C)[C@H](NC(=O)[C@H](Cc1ccccc1)NC(=O)[C@H](CCC(=O)O)NC(=O)[C@H](CCCNC(=N)N)NC(=O)[C@H](C)NC(=O)[C@H](C)NC(=O)[C@H](CCC(N)=O)NC(=O)[C@H](CCC(=O)O)NC(=O)[C@H](CCC(=O)O)NC(=O)[C@H](CC(C)C)NC(=O)[C@H](Cc1ccc(O)cc1)NC(=O)[C@H](CO)NC(=O)[C@H](CO)NC(=O)[C@@H](NC(=O)[C@H](CC(=O)O)NC(=O)[C@H](CO)NC(=O)[C@@H](NC(=O)[C@H](Cc1ccccc1)NC(=O)[C@@H](NC(=O)CNC(=O)[C@H](CCC(=O)O)NC(=O)C(C)(C)NC(=O)[C@@H](N)Cc1c[nH]cn1)[C@@H](C)O)[C@@H](C)O)C(C)C)C(=O)N[C@@H](C)C(=O)N[C@@H](Cc1c[nH]c2ccccc12)C(=O)N[C@@H](CC(C)C)C(=O)N[C@H](C(=O)N[C@@H](CCCNC(=N)N)C(=O)NCC(=O)N[C@@H](CCCNC(=N)N)C(=O)N[C@@H](CCCCNC(=O)CN(CCCNC(=O)COCCOCCNC(=O)COCCOCCNC(=O)COCCOCCNC(=O)COCCOCCNC(=O)CC[C@H](NC(=O)[C@H]1CC[C@H](CNC(=O)CCCCCCCCCCCCCCCS(=O)(=O)O)CC1)C(=O)O)CCCNC(=O)COCCOCCNC(=O)COCCOCCNC(=O)COCCOCCNC(=O)COCCOCCNC(=O)CC[C@H](NC(=O)[C@H]1CC[C@H](CNC(=O)CCCCCCCCCCCCCCCS(=O)(=O)O)CC1)C(=O)O)C(=O)O)C(C)C [Example 22, N{Epsilon-37}-[2-[bis[3-[[2-[2-[2-[[2-[2-[2-[[2-[2-[2-[[2-[2-[2-[[(4S)-4-carboxy-4-[[4-[(16-sulfohexadecanoylamino)methyl]cyclohexanecarbonyl]amino]butanoyl]amino]ethoxy]ethoxy]acetyl]amino]ethoxy]ethoxy]acetyl]amino]ethoxy]ethoxy]acetyl]amino]ethoxy]ethoxy]acetyl]amino]propyl]amino]acetyl]-[Aib8,Glu22,Arg26,Arg34,Lys37]-GLP-1-(7-37)-peptide] | 0.12 | 47 | 0.0016
– | CC[C@H](C)[C@H](NC(=O)[C@H](Cc1ccccc1)NC(=O)[C@H](CCC(=O)O)NC(=O)[C@H](CCCNC(=N)N)NC(=O)[C@H](C)NC(=O)[C@H](C)NC(=O)[C@H](CCC(N)=O)NC(=O)[C@H](CCC(=O)O)NC(=O)[C@H](CCC(=O)O)NC(=O)[C@H](CC(C)C)NC(=O)[C@H](Cc1ccc(O)cc1)NC(=O)[C@H](CO)NC(=O)[C@H](CO)NC(=O)[C@@H](NC(=O)[C@H](CC(=O)O)NC(=O)[C@H](CO)NC(=O)[C@@H](NC(=O)[C@H](Cc1ccccc1)NC(=O)[C@@H](NC(=O)CNC(=O)[C@H](CCC(=O)O)NC(=O)C(C)(C)NC(=O)[C@@H](N)Cc1c[nH]cn1)[C@@H](C)O)[C@@H](C)O)C(C)C)C(=O)N[C@@H](C)C(=O)N[C@@H](Cc1c[nH]c2ccccc12)C(=O)N[C@@H](CC(C)C)C(=O)N[C@H](C(=O)N[C@@H](CCCNC(=N)N)C(=O)NCC(=O)N[C@@H](CCCNC(=N)N)C(=O)N[C@@H](CCCCNC(=O)CN(CCCNC(=O)COCCOCCNC(=O)COCCOCCNC(=O)COCCOCCNC(=O)COCCOCCNC(=O)COCCOCCNC(=O)CC[C@H](NC(=O)[C@H]1CC[C@H](CNC(=O)CCCCCCCCCCCCCCCS(=O)(=O)O)CC1)C(=O)O)CCCNC(=O)COCCOCCNC(=O)COCCOCCNC(=O)COCCOCCNC(=O)COCCOCCNC(=O)COCCOCCNC(=O)CC[C@H](NC(=O)[C@H]1CC[C@H](CNC(=O)CCCCCCCCCCCCCCCS(=O)(=O)O)CC1)C(=O)O)C(=O)O)C(C)C [Example 23, N{Epsilon-37}-[2-[bis[3-[[2-[2-[2-[[2-[2-[2-[[2-[2-[2-[[2-[2-[2-[[2-[2-[2-[[(4S)-4-carboxy-4-[[4-[(16-sulfohexadecanoylamino)methyl]cyclohexanecarbonyl]amino]butanoyl]amino]ethoxy]ethoxy]acetyl]amino]ethoxy]ethoxy]acetyl]amino]ethoxy]ethoxy]acetyl]amino]ethoxy]ethoxy]acetyl]amino]ethoxy]ethoxy]acetyl]amino]propyl]amino]acetyl]-[Aib8,Glu22,Arg26,Arg34,Lys37]-GLP-1-(7-37)-peptide] | 0.14 | 16 | 0.0014
– | CC[C@H](C)[C@H](NC(=O)[C@H](Cc1ccccc1)NC(=O)[C@H](CCC(=O)O)NC(=O)[C@H](CCCNC(=N)N)NC(=O)[C@H](C)NC(=O)[C@H](C)NC(=O)[C@H](CCC(N)=O)NC(=O)[C@H](CCC(=O)O)NC(=O)[C@H](CCC(=O)O)NC(=O)[C@H](CC(C)C)NC(=O)[C@H](Cc1ccc(O)cc1)NC(=O)[C@H](CO)NC(=O)[C@H](CO)NC(=O)[C@@H](NC(=O)[C@H](CC(=O)O)NC(=O)[C@H](CO)NC(=O)[C@@H](NC(=O)[C@H](Cc1ccccc1)NC(=O)[C@@H](NC(=O)CNC(=O)[C@H](CCC(=O)O)NC(=O)C(C)(C)NC(=O)[C@@H](N)Cc1c[nH]cn1)[C@@H](C)O)[C@@H](C)O)C(C)C)C(=O)N[C@@H](C)C(=O)N[C@@H](Cc1c[nH]c2ccccc12)C(=O)N[C@@H](CC(C)C)C(=O)N[C@H](C(=O)N[C@@H](CCCNC(=N)N)C(=O)NCC(=O)N[C@@H](CCCNC(=N)N)C(=O)N[C@@H](CCCCNC(=O)CN(CCCNC(=O)COCCOCCNC(=O)COCCOCCNC(=O)COCCOCCNC(=O)COCCOCCNC(=O)COCCOCCNC(=O)COCCOCCNC(=O)CC[C@H](NC(=O)[C@H]1CC[C@H](CNC(=O)CCCCCCCCCCCCCCCS(=O)(=O)O)CC1)C(=O)O)CCCNC(=O)COCCOCCNC(=O)COCCOCCNC(=O)COCCOCCNC(=O)COCCOCCNC(=O)COCCOCCNC(=O)COCCOCCNC(=O)CC[C@H](NC(=O)[C@H]1CC[C@H](CNC(=O)CCCCCCCCCCCCCCCS(=O)(=O)O)CC1)C(=O)O)C(=O)O)C(C)C [Example 24] | 0.16 | 32 | 0.0018
– | CC[C@H](C)[C@H](NC(=O)[C@H](Cc1ccccc1)NC(=O)[C@H](CCC(=O)O)NC(=O)[C@H](CCCNC(=N)N)NC(=O)[C@H](C)NC(=O)[C@H](C)NC(=O)[C@H](CCC(N)=O)NC(=O)[C@H](CCC(=O)O)NC(=O)[C@H](CCC(=O)O)NC(=O)[C@H](CC(C)C)NC(=O)[C@H](Cc1ccc(O)cc1)NC(=O)[C@H](CO)NC(=O)[C@H](CO)NC(=O)[C@@H](NC(=O)[C@H](CC(=O)O)NC(=O)[C@H](CO)NC(=O)[C@@H](NC(=O)[C@H](Cc1ccccc1)NC(=O)[C@@H](NC(=O)CNC(=O)[C@H](CCC(=O)O)NC(=O)C(C)(C)NC(=O)[C@@H](N)Cc1c[nH]cn1)[C@@H](C)O)[C@@H](C)O)C(C)C)C(=O)N[C@@H](C)C(=O)N[C@@H](Cc1c[nH]c2ccccc12)C(=O)N[C@@H](CC(C)C)C(=O)N[C@H](C(=O)N[C@@H](CCCNC(=N)N)C(=O)NCC(=O)N[C@@H](CCCNC(=N)N)C(=O)N[C@@H](CCCCNC(=O)COCCOCCNC(=O)COCCOCCNC(=O)COCCOCCNC(=O)COCCOCCNC(=O)COCCOCCNC(=O)COCCOCCNC(=O)CN(CCCNC(=O)[C@H](CO)NC(=O)CC[C@H](NC(=O)[C@H]1CC[C@H](CNC(=O)CCCCCCCCCCCCCCCCCCC(=O)O)CC1)C(=O)O)CCCNC(=O)[C@H](CO)NC(=O)CC[C@H](NC(=O)[C@H]1CC[C@H](CNC(=O)CCCCCCCCCCCCCCCCCCC(=O)O)CC1)C(=O)O)C(=O)O)C(C)C [Example 25] | 0.91 | 41 | 0.03

— patent US11572398B2, “GLP-1 derivatives and uses thereof” (Novo Nordisk A/S, priority 2014, dated 2023)
